Converted amounts (≈) assume the structure as drawn.

Data set [1] has as its system Mäuse-L 1210-Leukämiezellen. Nature of the data set: Proliferation test (14C-thymidine incorporation). Type of data set: cell-based. The conditions noted are these: Mus musculus, read-out: IC50 Proliferations-test. An excerpt: (§1) Die Ermittlung der zytostatischen Aktivität der Kesarirhodine erfolgte in der nachfolgend beschriebenen Weise an Mäuse-L 1210-Leukämiezellen.
Bei dieser in vitro-Methode ist es nach der Inkubation der Zellen mit verschiedenen Konzentrationen der Prüfsubstanz möglich, die eingebaute Menge eines radioaktiv markierten DNS-Vorläufers (z.B. 14C-Thymidin) in einer wachsenden Zelle zu bestimmen. Als Kontrolle dienen dem gleichen Verfahren unterzogenen unbehandelte L 1210-Zellen. Die Methode wird nachstehend kurz zusammengefaßt: • L 1210-Zellen in exponentieller Wachstumsphase (5 x 10^3/ml in RPMI 1640) werden 72 Stunden lang (37°C, 5 % C02, 95 % relative Feuchtigkeit) in einer 96-Loch-Mikrotiterplatte mit unterschiedlichen Konzentrationen der Prüfsubstanz inkubiert. Als Kontrollen werden Zellen verwendet, die lediglich mit dem frischen Medium in Berührung gebracht werden. Es werden vier Löcher für jede Medikamentenkonzentration und Kontrolle angelegt. Nach 65 Stunden werden 50 µl 14C Thymidin (1,5 oCi/ml) zugefügt, um die Zell-DNS zu markieren. Nach 7 Stunden Inkubation werden die Zellen geerntet, die DNS mit 5 % Trichloressigsäure abgetrennt und mit Wasser und Methanol gewaschen. Nach dem Trocknen bei 50°C wird die Szintillationszahl mit 5 ml Szintillationsflüssigkeit bestimmt.
Die Ergebnisse werden als Quotient des Szintillationsindex nach der Inkubation mit den Testsubstanzen mit dem der Kontrollsubstanz ausgedrückt. Mit den ermittelten Werten wird eine Dosiswirkungskurve gezeichnet und der Wert IC50 d.h. die Konzentration der Prüfsubstanz, die den Einbau von markiertem Thymidin im Vergleich zur Kontrolle um 50 % hemmt, graphisch ermittelt. Die IC50-Werte sind denen von Adriamycin in der folgenden Tabelle III gegenübergestellt.
A general note: Incorporation of labelled thymidine or its analogues reports DNA synthesis.

Data set [2] relates to Candida albicans. The data set can be described thus: Agar well diffusion (inhibition zone). The note with it: 1 mg/ml solution in a 6 mm well in agar containing Candida albicans; read-out: Hofdurchmesser. Type of data set: cell-based. How it is done: (§2) Bestimmt wurde die bakteriostatische Wirkung von Kesarirhodin. Die Resultate, die als Durchmesser (in Millimetern) der Hemmhöfe, erzeugt durch die Substanz in Form einer 1 mg/ml-Lösung in einem Loch von 6 mm Durchmesser in Agar, das den Testorganismus enthält, angegeben sind, werden in der nachfolgenden Tabelle, Tabelle II, dargestellt. Kesarirhodine sind gegen gram-positive Bakterien und Pilze wirksam und können deshalb als Antibiotika zur Behandlung von Pilz- und Staphylokokken-Infektionen, Diphterie, Pneumonie usw. eingesetzt werden.
In general terms: In agar diffusion tests the substance spreads into inoculated agar from a disc or well.

Data set [3] is described as follows: Solubility in solvents (qualitative). It is filed as physicochemical.
Data set [4] concerns Mäuse-L 1210-Leukämiezellen. Nature of the data set: Stem cell test (colony formation in soft agar, continuous incubation). Type of data set: cell-based. The note with it: Mus musculus, L1210, 168 h, read-out: IC50 Stammzellentest 7 Tage Inkubation.
Description: as §1
Diese Methode dient zum Nachweis der Wirkung der Prüfsubstanz auf das Wachstum von Leukämiezellen über mehrere Generationen (da die Dauer eines Zellzyklus 10 - 12 Stunden beträgt, werden innerhalb des Untersuchungszeitraumes von 7 Tagen rund 14 aufeinanderfolgende Generationen erfaßt).
In diesem Test beruht die Wirkung von zytotoxischen Substanzen auf der Verminderung der Zahl beobachtbarer Kolonien im Vergleich zur unbehandelten Kontrolle. Es wird folgende Methodik verwendet: • Pro Platte werden 500 L 1210-Leukämiezellen verwendet. Die Experimente werden bei kontinuierlicher Inkubation mit verschiedenen Konzentrationen der Prüfsubstanz durchgeführt, wobei die Substanz vor dem Aufbringen der Zellen auf die Platte der oberen Agarschicht beigemischt wird. Die Platten werden 7 Tage lang in einem Brutschrank gelagert (37°C, 5 % C023 95 % relative Luftfeuchtigkeit). Anschließend wird die Anzahl der entstandenen Kolonien mit einem Durchmesser von mehr als 60 um mit einem umgekehrten Mikroskop gezählt. Die Resultate werden als Prozentsatz der auf den behandelten Platten gebildeten Kolonien im Vergleich zu denen der unbehandelten Kontrolle ausgedrückt. Mit den ermittelten Werten wird eine Dosiswirkungskurve gezeichnet, aus welcher der IC50-Wert graphisch ermittelt wird. Die IC50-Werte der Kesarirhodine werden in Tabelle III mit denen von Adriamycin verglichen.

The test system of data set [5] is Bacillus subtilis. Nature of the data set: Bacteriostatic activity, agar well diffusion (inhibition zone). Type of data set: cell-based. The conditions noted are these: 1 mg/ml solution in a 6 mm well in agar containing Bacillus subtilis; read-out: Hofdurchmesser. The method, then: as §2
Data set [6] relates to Staphylococcus aureus 209P. The data set is described as above. It is filed as cell-based. The note with it: 1 mg/ml solution in a 6 mm well in agar containing Staphylococcus aureus 209P; read-out: Hofdurchmesser. The method, then:
as §2

The mark [7] stands for this setting: L1210, L 1210 cells, 72 h incubation, 14C-thymidine incorporation, read graphically from dose-response curve.
Setting [8] is: in Hexan (n-Hexan) und Petroläther (Petroleumäther).
Setting [9] is: in Methanol, Aceton, Äthylacetat, Chloroform und schwachen Säuren.
[10] abbreviates: 500 L 1210 cells per plate, soft agar, continuous incubation 7 days, colonies > 60 µm.

As to `CC[C@]1(O)Cc2c(O)c3c(c(O)c2[C@@H](O[C@H]2C[C@H](N(C)C)[C@H](O[C@H]4CC[C@H](O[C@H]5CC[C@H](O)[C@H](C)O5)[C@H](C)O4)[C@H](C)O2)C1)C(=O)c1c(O)cccc1C3=O` [Kesarirhodin B], the IC50 in data set [1] (setting [7]) was 0.1 µg/mL (≈ 0.132 µM); in data set [4] (setting [10]) it was 0.028 µg/mL (≈ 0.037 µM). For the same molecule, the values for the zone of inhibition at 1000 µg/mL in data set [2], in data set [5] and in data set [6] were 20 mm, 17 mm and 17 mm, respectively. Also, the Löslichkeit result in data set [3] (setting [8]) is listed as “wenig löslich”; in data set [3] (setting [9]) it was “löslich”.

For the molecule `CC[C@]1(O)Cc2c(O)c3c(c(O)c2[C@@H](O[C@H]2C[C@H](N(C)C)[C@H](O[C@H]4C[C@H](O)[C@H](O[C@H]5CC[C@H](O)[C@H](C)O5)[C@H](C)O4)[C@H](C)O2)C1)C(=O)c1c(O)cccc1C3=O` [Kesarirhodin A], the IC50 in data set [1] (setting [7]) and in data set [4] (setting [10]) was 0.031 µg/mL (≈ 0.0402 µM) each time. For the same molecule, the zone of inhibition at 1000 µg/mL in data set [2] stood at 20 mm; in data set [5], 17 mm; in data set [6], 15 mm. The Löslichkeit result in data set [3] (setting [8]) is recorded as “wenig löslich”; in data set [3] (setting [9]), “löslich”.

For the molecule `COc1cccc2c1C(=O)c1c(O)c3c(c(O)c1C2=O)C[C@@](O)(C(=O)CO)C[C@@H]3O[C@H]1C[C@H](N)[C@H](O)[C@H](C)O1` [Adriamycin, reference compound], the IC50 is 0.006 µg/mL (≈ 0.011 µM) in data set [1] (L1210, 72 h) and 0.022 µg/mL (≈ 0.0405 µM) in data set [4].

These data come from patent EP0186807A2, “Anthracycline derivatives, their microbiological preparation and their use as medicines” (HOECHST AKTIENGESELLSCHAFT, priority 1984, dated 1986).
